Consider two compounds from ChEMBL document CHEMBL1268862, “Eucophylline, a Tetracyclic Vinylquinoline Alkaloid from Leuconotis eugenifolius” (J Nat Prod, 2010).

The structures appear in SMILES notation.

The nature of this test: Antiinflammatory activity in mouse J774.1 cells assessed as inhibition of LPS-induced NO production. The class given is functional, cell-based.

The term IC50 denotes the concentration needed to halve the response being measured.

For `C=Cc1c2c(nc3cc(O)c([C@@H]4C[C@@]5(CC)CCCN6CCc7c(n4c4ccccc74)[C@H]65)cc13)N1CCC[C@](CC)(C2)C1` [LEUCOPHYLLIDINE], the IC50 was 7.1 µM. To `CNC(=N)NCCC[C@H](N)C(=O)O` [TILARGININE] belongs 22 µg/mL.
